Experiments:
[1] = tested on: T-Rex 293 cell line SC3 cells having increased expression of androgen receptor protein due to exposure to doxycycline; assay: Cellular growth inhibition, T-Rex 293 SC3 cells with doxycycline (androgen receptor induced), CellTiter-Glo; type: cell-based; details: T-Rex 293 SC3 cells with 10 ng/mL doxycycline (increased androgen receptor expression)
Method in brief: (§1)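 Cells of clone SC3 are seeded in charcoal-dextran-stripped serum medium with or without 10 ng/mL doxycycline to induce wild-type androgen receptor. After 24 h, serial compound dilutions are added at 0.5% DMSO and incubated 72 h at 37 °C. CellTiter-Glo 2.0 measures viability, giving GI50 values.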

[2] = tested on: T-Rex 293 cell line SC3 cells lacking increased expression of androgen receptor protein; assay: Cellular growth inhibition, T-Rex 293 SC3 cells without doxycycline, CellTiter-Glo; type: cell-based; details: T-Rex 293 SC3 cells not exposed to doxycycline, CellTiter-Glo 2.0
Method in brief: as §1

[3] = tested on: VCaP cells; assay: Cellular growth inhibition assay for VCaP cells, CellTiter-Glo; type: cell-based, human; details: 72 hours treatment, CellTiter-Glo 2.0
Method in brief: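 GI50 values come from four-parameter curve fits of luminescence data normalized to a zero baseline. Compound, in medium with 0.5% DMSO, was added one day after plating and left for 72 h before CellTiter-Glo 2.0 addition.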

[4] = tested on: T47D cells; assay: Cellular growth inhibition assay for T47D cells, CellTiter-Glo; type: cell-based, human; details: 72 hours treatment, CellTiter-Glo 2.0 cell viability
Method in brief: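 Cells are plated at 3000/well and allowed 24 h before treatment. Test compound in medium containing 0.5% DMSO is then added, with DMSO-only wells as negative control, and plates are incubated 72 h at 37 °C. ATP luminescence (CellTiter-Glo 2.0) is then fitted to four parameters to derive GI50.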

| Structure (SMILES) | GI50 ([1]; 72 h) | GI50 ([2]; 72 h) | GI50 ([3]; Homo sapiens, VCaP, 72 h) | GI50 ([4]; Homo sapiens, T47D, 72 h) | GI50 ([1]; 72 hours) | GI50 ([2]; 72 hours) | GI50 [3] | GI50 [4] |
| --- | --- | --- | --- | --- | --- | --- | --- | --- |
| CCNC(=O)C[C@@H]1N=C(c2ccc(N(C)CCC3CCN(c4ncc(C(=O)N[C@H]5C(C)(C)[C@H](Oc6ccc(C#N)c(Cl)c6)C5(C)C)cn4)CC3)cc2)c2c(sc(C)c2C)-n2c(C)nnc21 [Compound I-110] | < 0.5 µM | < 0.5 µM | < 0.5 µM | < 0.5 µM | – | – | – | – |
| Cc1sc2c(c1C)C(c1ccc(CC(=O)N3CCN(c4ncc(C(=O)N[C@H]5C(C)(C)[C@H](Oc6ccc(C#N)c(Cl)c6)C5(C)C)cn4)CC3)cc1)=N[C@@H](Cc1ncco1)c1nnc(C)n1-2 [Compound I-363] | < 0.5 µM | 0.5 to 1.5 µM | < 0.5 µM | 0.5 to 1.5 µM | – | – | – | – |
| Cc1sc2c(c1C)C(c1ccc(CCOC3CCN(c4ncc(C(=O)N[C@H]5C(C)(C)[C@H](Oc6ccc(C#N)c(Cl)c6)C5(C)C)cn4)CC3)cc1)=NC(Cc1ncco1)c1nnc(C)n1-2 (stereo partly drawn) [Compound I-140] | < 0.5 µM | < 0.5 µM | < 0.5 µM | < 0.5 µM | – | – | – | – |
| Cc1sc2c(c1C)C(c1ccc(N3CCCC(C(=O)N4CCC[C@H](c5ncc(C(=O)N[C@H]6C(C)(C)[C@H](Oc7ccc(C#N)c(Cl)c7)C6(C)C)cn5)C4)C3)cc1)=N[C@@H](Cc1ncco1)c1nnc(C)n1-2 (stereo partly drawn) [Compound I-336] | < 0.5 µM | 0.5 to 1.5 µM | 0.5 to 1.5 µM | < 0.5 µM | – | – | – | – |
| Cc1sc2c(c1C)C(c1ccc(C3CC(CC4CN(c5ncc(C(=O)N[C@H]6C(C)(C)[C@H](Oc7ccc(C#N)c(Cl)c7)C6(C)C)cn5)C4)C3)cc1)=NC(Cc1ncco1)c1nnc(C)n1-2 (stereo partly drawn) [Compound I-477] | – | – | – | – | < 0.5 µM | < 0.5 µM | < 0.5 µM | < 0.5 µM |
| Cc1sc2c(c1C)C(c1ccc(CC3CC4(CCN(c5cnc(C(=O)N[C@H]6C(C)(C)[C@H](Oc7ccc(C#N)c(Cl)c7)C6(C)C)cn5)CC4)C3)cc1)=N[C@@H](Cc1ncco1)c1nnc(C)n1-2 [Compound I-547] | < 0.5 µM | < 0.5 µM | > 3 µM | < 0.5 µM | – | – | – | – |
| Cc1sc2c(c1C)C(c1ccc([C@H]3C[C@H]([C@H]4CCCN(c5ncc(C(=O)N[C@H]6C(C)(C)[C@H](Oc7ccc(C#N)c(Cl)c7)C6(C)C)cn5)C4)C3)cc1)=N[C@@H](Cc1ncco1)c1nnc(C)n1-2 [Compound I-420] | > 3 µM | > 3 µM | > 3 µM | > 3 µM | – | – | – | – |
| Cc1sc2c(c1C)C(c1ccc(CC[C@H]3CC[C@@]4(CCCN(c5ncc(C(=O)N[C@H]6C(C)(C)[C@H](Oc7ccc(C#N)c(Cl)c7)C6(C)C)cn5)C4)C3)cc1)=N[C@@H](Cc1ncco1)c1nnc(C)n1-2 [Compound I-248] | > 3 µM | > 3 µM | > 3 µM | > 3 µM | – | – | – | – |
| Cc1sc2c(c1C)C(c1ccc(CC(=O)N3CCC(c4ncc(C(=O)N[C@H]5C(C)(C)[C@H](Oc6ccc(C#N)c(Cl)c6)C5(C)C)cn4)CC3)cc1)=N[C@H](Cc1ncco1)c1nnc(C)n1-2 [Compound I-370] | < 0.5 µM | > 3 µM | < 0.5 µM | 0.5 to 1.5 µM | – | – | – | – |
| Cc1sc2c(c1C)C(c1ccc(CC3CCN(c4ncc(C(=O)N[C@H]5C(C)(C)[C@H](Oc6ccc(C#N)c(Cl)c6)C5(C)C)cn4)CC3)cc1)=N[C@@H](C)c1nnc(C)n1-2 [Compound I-557] | < 0.5 µM | < 0.5 µM | < 0.5 µM | > 3 µM | – | – | – | – |
| Cc1sc2c(c1C)C(c1ccc(O[C@H]3CC[C@]4(CCN(c5ncc(C(=O)N[C@H]6C(C)(C)[C@H](Oc7ccc(C#N)c(Cl)c7)C6(C)C)cn5)C4)CC3)cc1)=N[C@@H](Cc1ncco1)c1nnc(C)n1-2 [Compound I-178] | < 0.5 µM | < 0.5 µM | < 0.5 µM | < 0.5 µM | – | – | – | – |
| Cc1sc2c(c1C)C(c1ccc(C3CC(C4CCN(c5cnc(C(=O)N[C@H]6C(C)(C)[C@H](Oc7ccc(C#N)c(Cl)c7)C6(C)C)cn5)CC4)C3)cc1)=NC(C)c1nnc(C)n1-2 (stereo partly drawn) [Compound I-471] | – | – | – | – | 0.5 to 1.5 µM | > 3 µM | > 3 µM | < 0.5 µM |
| Cc1sc2c(c1C)C(c1ccc(CNC(=O)[C@H]3CCCN(c4ncc(C(=O)N[C@H]5C(C)(C)[C@H](Oc6ccc(C#N)c(Cl)c6)C5(C)C)cn4)C3)cc1)=N[C@@H](Cc1ncco1)c1nnc(C)n1-2 [Compound I-264] | < 0.5 µM | < 0.5 µM | < 0.5 µM | < 0.5 µM | – | – | – | – |
| Cc1sc2c(c1C)C(c1ccc(OC3CC4(CCN(c5ncc(C(=O)N[C@H]6C(C)(C)[C@H](Oc7ccc(C#N)c(Cl)c7)C6(C)C)cn5)CC4)C3)cc1)=N[C@@H](CC(C)(C)O)c1nnc(C)n1-2 [Compound I-280] | < 0.5 µM | > 3 µM | < 0.5 µM | > 3 µM | – | – | – | – |
| Cc1sc2c(c1C)C(c1ccc([C@H]3C[C@@H]([C@H]4CCN(c5ncc(C(=O)N[C@H]6C(C)(C)[C@H](Oc7ccc(C#N)c(Cl)c7)C6(C)C)cn5)C4)C3)cc1)=N[C@@H](Cc1ncco1)c1nnc(C)n1-2 [Compound I-415] | > 3 µM | > 3 µM | > 3 µM | > 3 µM | – | – | – | – |
| Cc1sc2c(c1C)C(c1ccc(CNC(=O)CNC(=O)c3ncc(C(=O)N[C@H]4C(C)(C)[C@H](Oc5ccc(C#N)c(Cl)c5)C4(C)C)cn3)cc1)=N[C@@H](Cc1ncco1)c1nnc(C)n1-2 [Compound I-292] | > 3 µM | > 3 µM | 0.5 to 1.5 µM | > 3 µM | – | – | – | – |
| Cc1sc2c(c1C)C(c1ccc(-c3noc(C4CCN(c5ncc(C(=O)N[C@H]6C(C)(C)[C@H](Oc7ccc(C#N)c(Cl)c7)C6(C)C)cn5)CC4)n3)cc1)=N[C@@H](Cc1ncco1)c1nnc(C)n1-2 [Compound I-454] | < 0.5 µM | < 0.5 µM | < 0.5 µM | 0.5 to 1.5 µM | – | – | – | – |
| Cc1sc2c(c1C)C(c1ccc(C[C@@H]3CC[C@]4(CCCN(c5ncc(C(=O)N[C@H]6C(C)(C)[C@H](Oc7ccc(C#N)c(Cl)c7)C6(C)C)cn5)C4)C3)cc1)=N[C@@H](Cc1ncco1)c1nnc(C)n1-2 [Compound I-165] | < 0.5 µM | > 3 µM | 0.5 to 1.5 µM | 1.5 to 3 µM | – | – | – | – |
| Cc1sc2c(c1C)C(c1ccc(N3CCC(CC4CCN(c5ncc(C(=O)N[C@H]6C(C)(C)[C@H](Oc7ccc(C#N)c(Cl)c7)C6(C)C)cn5)CC4)CC3)cc1)=N[C@@H](Cc1ncco1)c1nnc(C)n1-2 [Compound I-210] | 0.5 to 1.5 µM | > 3 µM | > 3 µM | > 3 µM | – | – | – | – |
| Cc1sc2c(c1C)C(c1ccc(O[C@H]3CCOC34CN(c3ncc(C(=O)N[C@H]5C(C)(C)[C@H](Oc6ccc(C#N)c(Cl)c6)C5(C)C)cn3)C4)cc1)=N[C@@H](Cc1ncco1)c1nnc(C)n1-2 [Compound I-183] | < 0.5 µM | < 0.5 µM | < 0.5 µM | 0.5 to 1.5 µM | – | – | – | – |
| Cc1sc2c(c1C)C(c1ccc(CCN3CC[C@]4(C3)CN(c3ncc(C(=O)N[C@H]5C(C)(C)[C@H](Oc6ccc(C#N)c(Cl)c6)C5(C)C)cn3)CC(F)(F)C4)cc1)=N[C@@H](Cc1ncco1)c1nnc(C)n1-2 [Compound I-424] | < 0.5 µM | > 3 µM | < 0.5 µM | < 0.5 µM | – | – | – | – |
| Cc1sc2c(c1C)C(c1ccc(N3CCC[C@@H](OCCc4ncc(C(=O)N[C@H]5C(C)(C)[C@H](Oc6ccc(C#N)c(Cl)c6)C5(C)C)cn4)C3)cc1)=N[C@@H](Cc1ncco1)c1nnc(C)n1-2 [Compound I-451] | < 0.5 µM | 0.5 to 1.5 µM | < 0.5 µM | 0.5 to 1.5 µM | – | – | – | – |
| Cc1sc2c(c1C)C(c1ccc(C3CC(C4CCN(c5cnc(C(=O)N[C@H]6C(C)(C)[C@H](Oc7ccc(C#N)c(Cl)c7)C6(C)C)cn5)CC4)C3)cc1)=NC(C)c1nnc(C)n1-2 (stereo partly drawn) [Compound I-472] | – | – | – | – | > 3 µM | > 3 µM | > 3 µM | < 0.5 µM |
| Cc1sc2c(c1C)C(c1ccc(O[C@@H]3CCCN(c4ncc(C(=O)N[C@H]5C(C)(C)[C@H](Oc6ccc(C#N)c(Cl)c6)C5(C)C)cn4)C3)cc1)=N[C@@H](Cc1ncco1)c1nnc(C)n1-2 [Compound I-260] | < 0.5 µM | 1.5 to 3 µM | < 0.5 µM | < 0.5 µM | – | – | – | – |
| Cc1sc2c(c1C)C(c1ccc(NCC3(F)CCN(c4ncc(C(=O)N[C@H]5C(C)(C)[C@H](Oc6ccc(C#N)c(Cl)c6)C5(C)C)cn4)CC3)cc1)=NC(Cc1ncco1)c1nnc(C)n1-2 (stereo partly drawn) [Compound I-634] | < 0.5 µM | > 3 µM | 0.5 to 1.5 µM | < 0.5 µM | – | – | – | – |
| Cc1sc2c(c1C)C(c1ccc(CC[C@@H]3CC[C@]4(CCCN(c5ncc(C(=O)N[C@H]6C(C)(C)[C@H](Oc7ccc(C#N)c(Cl)c7)C6(C)C)cn5)C4)C3)cc1)=N[C@@H](Cc1ncco1)c1nnc(C)n1-2 [Compound I-250] | < 0.5 µM | > 3 µM | < 0.5 µM | < 0.5 µM | – | – | – | – |
| Cc1sc2c(c1C)C(c1ccc(CCCOC3CCN(c4ncc(C(=O)N[C@H]5C(C)(C)[C@H](Oc6ccc(C#N)c(Cl)c6)C5(C)C)cn4)CC3)cc1)=N[C@H](Cc1cccnc1)c1nnc(C)n1-2 [Compound I-217] | < 0.5 µM | > 3 µM | < 0.5 µM | < 0.5 µM | – | – | – | – |
